Source: US9708251B2, “Unsaturated fatty alcohol alkoxylates from natural oil metathesis” (Stepan Company, priority 2012, dated 2017)

Key:
[1] = Emulsion stability testing of nonionic emulsifiers, aromatic solvent series; format: physicochemical; set-up: key to 24 h separation, appearance / 1 h separation, appearance / 1 h separation, amount: C = creamy; CO = creamy oil; O = oil; GC = gritty cream; NS = no separation; OC = oily cream; key to Spon. (spontaneity): G = good; F = fair; P = poor
Experimental: (§1) Nonionic samples contain a low amount of water (<1%) and are prepared as emulsifiable concentrates with three pesticides using two different solvent systems. In the aromatic solvent series, the nonionic sample replaces Toximul® 8240 (castor oil ethoxylate, 36 POE, Stepan), and in the Hallcomid™ (N,N-dimethylcaprylamide/N,N-dimethylcapramide, Stepan) solvent series, the nonionic sample replaces Ninex® MT-630F.
Sample preparation: Ninate® 60E (calcium alkylbenzenesulfonate, Stepan) and the test sample are stirred until homogeneous. […] Controls 1-3 are made by using Toximul 8240 in the amounts indicated instead of the nonionic sample.
Formulations: • 1. Bifenthrin, 240 g/L (2.99 g), Aromatic 100 (ExxonMobil, 8.05 g), Ninate 60E (0.38 g), and nonionic sample or Toximul 8240 (0.58 g). • 2. 2,4-D ester, 480 g/L (8.90 g), Exxsol® D-110 (ExxonMobil, 2.50 g), Ninate 60E (0.36 g), and nonionic sample or Toximul 8240 (0.24 g). • 3. Tebuconazole, 360 g/L (4.45 g), N-methyl-2-pyrrolidone (6.35 g), Ninate 60E (0.48 g), nonionic sample or Toximul 8240 (0.72 g).
(§2) Emulsion Stability Testing
(§3) A Mohr pipette is used to feed pesticide/surfactant concentrates to each cylinder.

[2] = Emulsion stability testing of nonionic emulsifiers, Hallcomid solvent series; format: physicochemical; set-up: key: C = creamy; CO = creamy oil; O = oil; GC = gritty cream; NS = no separation; OC = oily cream; conditions: Bifenthrin 240 g/L in Hallcomid M-8-10, 34 ppm water
Experimental: as §1
(§4) Hallcomid Solvent Series.
(§5) Sample preparation: The surfactants are combined and stirred until homogeneous, with the nonionic sample melted if needed prior to combination. Controls 1-3 are made by using Ninex MT-630F in the amounts indicated instead of the nonionic sample.
as §2, §3

[3] = as above; format: physicochemical; set-up: key to 24 h separation, appearance / 1 h separation, appearance / 1 h separation, amount: C = creamy; CO = creamy oil; O = oil; GC = gritty cream; NS = no separation; OC = oily cream; key to Spon. (spontaneity): G = good; F = fair; P = poor
Experimental: as §1, §4, §5, §2, §3

[4] = Surfactant phase behavior study (cross-polarized microscopy); format: physicochemical; conditions: room temperature
Experimental: Phase behavior is observed using an Olympus BH-2 cross-polarized microscope at 100-400× and room temperature (20° C. to 22° C.). The inventive monounsaturated alcohol ethoxylates are compared with their saturated analogs.
Samples are prepared by diluting the most concentrated product gradually with deionized water. When the surfactant concentration approaches a phase transition, the concentration is varied at 2-4% intervals to estimate the phase boundary. The actives level reported in Table 4 for each phase boundary is within ±5% of the true boundary.
Samples are loaded between a microscope slide and cover glass and are allowed to equilibrate before observation. Microscopic texture is analyzed and used to determine the phase. For some samples, an AR 2000 rheometer (TA Instruments) is used to measure viscosity at 25° C. to further verify phase behavior.

[5] = Agrichemical solvent analysis: active solubility; format: physicochemical; conditions: room temperature
Experimental: Solvency strength of potential agrichemical solvents is evaluated by identifying the solubility level of three standard pesticides in the solvent by weight percent: 2,4-D acid, imidacloprid, and tebuconazole. […] The active material is also accurately weighed before addition. Initial amounts of active material are approximately: 2,4-D: 0.3 g; imidacloprid: 0.02 g; tebuconazole: 0.3 g. Solvent and pesticide active are combined, allowed to mix for 1 h at room temperature, and then inspected for the presence of undissolved active material. Additional active material is added in appropriately small increments until it no longer dissolves completely. This mixture is then stirred for 24 h at room temperature, and if the active has completely dissolved, additional active ingredient is added and the mixture is stirred another 24 h at room temperature. The percent solubility is recorded, and performance is compared with that of a standard agricultural solvent.

[6] = 0.4 wt. % active, 342 ppm hard water
Experimental: Surfactant solution (100 mL) is carefully transferred to a stainless-steel mixing cup, then mixed at high speed (27K rpm) using a Hamilton Beach mixer for 10 s. The contents are quickly poured into a 100-mL graduated cylinder to the 100-mL mark, and a stopwatch is immediately started. The amount of liquid settling in the cylinder is recorded every 15 s for 4 min. Less liquid drained indicates greater foam stability.

[7] = 2,4-D ester 480 g/L in Exxsol D-110, 34 ppm water
[8] = 2,4-D ester 480 g/L in Exxsol D-110, 1000 ppm water
[9] = Bifenthrin 240 g/L in Aromatic 100, 34 ppm water
[10] = Bifenthrin 240 g/L in Aromatic 100, 1000 ppm water
[11] = Tebuconazole 360 g/L in N-methyl-2-pyrrolidone, 34 ppm water
[12] = Tebuconazole 360 g/L in N-methyl-2-pyrrolidone, 1000 ppm water
[13] = 2,4-D diester 480 g/L in Hallcomid M-8-10, 34 ppm water
[14] = 2,4-D diester 480 g/L in Hallcomid M-8-10, 1000 ppm water
[15] = Bifenthrin 240 g/L in Hallcomid M-8-10, 34 ppm water
[16] = Bifenthrin 240 g/L in Hallcomid M-8-10, 1000 ppm water
[17] = Tebuconazole 360 g/L in Hallcomid M-8-10, 34 ppm water
[18] = Tebuconazole 360 g/L in Hallcomid M-8-10, 1000 ppm water

C=CCCCCCCCCOCCO [A10-4]
1 h separation, amount [1, 7]: 4.5 mL
1 h separation, appearance [1, 7]: CO
24 h separation, amount [1, 7]: 2 O, 1 CO, 2 C
Spon. (spontaneity) [1, 7]: P
1 h separation, amount [1, 8]: 3.8 mL
1 h separation, appearance [1, 8]: O
24 h separation, amount [1, 8]: 4 mL
24 h separation, appearance [1, 8]: O
Spon. (spontaneity) [1, 8]: P
1 h separation, amount [1, 9]: 7.5 mL
1 h separation, appearance [1, 9]: CO
24 h separation, amount [1, 9]: 3 O, 3 CO
Spon. (spontaneity) [1, 9]: P
1 h separation, amount [1, 10]: 6 mL
1 h separation, appearance [1, 10]: O
24 h separation, amount [1, 10]: 6 mL
24 h separation, appearance [1, 10]: O
Spon. (spontaneity) [1, 10]: P
1 h separation, amount [1, 11]: 2 mL
1 h separation, appearance [1, 11]: GC
24 h separation, amount [1, 11]: 3 mL
24 h separation, appearance [1, 11]: GC
Spon. (spontaneity) [1, 11]: P
1 h separation, amount [1, 12]: 3 mL
1 h separation, appearance [1, 12]: GC
24 h separation, amount [1, 12]: 4 mL
24 h separation, appearance [1, 12]: GC
Spon. (spontaneity) [1, 12]: P
24 h separation, amount [2]: NS
1 h separation, amount [3, 13]: 6 mL
1 h separation, appearance [3, 13]: C
24 h separation, amount [3, 13]: 9.5 mL
24 h separation, appearance [3, 13]: C
Spon. (spontaneity) [3, 13]: F
1 h separation, amount [3, 14]: 6.5 mL
1 h separation, appearance [3, 14]: C
24 h separation, amount [3, 14]: 8 mL
24 h separation, appearance [3, 14]: C
Spon. (spontaneity) [3, 14]: F
1 h separation, amount [3, 15]: NS
Spon. (spontaneity) [3, 15]: F
1 h separation, amount [3, 16]: Tr. GC, 12 C
24 h separation, amount [3, 16]: 3.5 O, 3 CO
Spon. (spontaneity) [3, 16]: F
1 h separation, amount [3, 17]: 3 mL
1 h separation, appearance [3, 17]: C
24 h separation, amount [3, 17]: 6.5 mL
24 h separation, appearance [3, 17]: C
Spon. (spontaneity) [3, 17]: F
1 h separation, amount [3, 18]: 4 mL
1 h separation, appearance [3, 18]: C
24 h separation, amount [3, 18]: 5.8 mL
24 h separation, appearance [3, 18]: C
Spon. (spontaneity) [3, 18]: F

CCCCCCCCCCOCCOCCOCCO [sat. analog of A10-7]
combined isotropic phases (clear and opaque), share of the total [4]: about 38%
Isotropic Clear phase region ([4]; in deionized water): 90-100 % Actives Level
Isotropic Opaque phase region ([4]; in deionized water): 0-28 % Actives Level
Lamellar phase region ([4]; in deionized water): 28-90 % Actives Level

CCCCCCCCCCCCOCCOCCOCCOCCOCCO [sat. analog of A12-10]
Lamellar phase region ([4]; in deionized water): 40-83 % Actives Level
Lamellar/Isotropic phase region ([4]; in deionized water): 30-40 % Actives Level

CCCCCCCCCCOCCOCCOCCOCCOCCOCCOCCO [sat. analog of A10-13]
Lamellar phase region ([4]; in deionized water): 43-60 % Actives Level

CCCCCCCCCCOCCOCCOCCOCCOCCOCCOCCOCCOCCOCCOCCOCCOCCOCCOCCO [sat. analog of A10-16]
Cubic phase region ([4]; in deionized water): 37-55 % Actives Level
Paste phase region ([4]; in deionized water): 93-100 % Actives Level

CN1CCCC1=O [N-methyl-2-pyrrolidone, reference compound]
solubility of 2,4-D Acid in the solvent [5]: 39.5 weight percent
solubility of Imidacloprid in the solvent [5]: 29.3 weight percent
solubility of Tebuconazole in the solvent [5]: 62.2 weight percent

CCCCCCCCCCCCOCCOCCOCCO [sat. analog of A12-7]
combined isotropic phases (clear and opaque), share of the total [4]: about 38%
Isotropic Clear phase region ([4]; in deionized water): 90-100 % Actives Level
Isotropic Opaque phase region ([4]; in deionized water): 0-28 % Actives Level
Lamellar phase region ([4]; in deionized water): 28-90 % Actives Level

CCCCCCCCCC(=O)N(C)C [N,N-dimethylcapramide, reference compound]
solubility of 2,4-D Acid in the solvent [5]: 45.4 weight percent
solubility of Imidacloprid in the solvent [5]: 4.2 weight percent
solubility of Tebuconazole in the solvent [5]: 38.8 weight percent

ammonium alkyl ether sulfate [Control 3, reference compound]
Liquid volume at drain time 0.5 min [6]: 0.25 mL
Liquid volume at drain time 1.0 min [6]: 1.00 mL
Liquid volume at drain time 1.5 min [6]: 2.00 mL
Liquid volume at drain time 2.0 min [6]: 3.00 mL
Liquid volume at drain time 2.5 min [6]: 4.00 mL
Liquid volume at drain time 3.0 min [6]: 5.25 mL
Liquid volume at drain time 3.5 min [6]: 6.50 mL
Liquid volume at drain time 4.0 min [6]: 7.50 mL

CCCCCCCCCCCCOCCOCCOCCOCCOCCOCCOCCOCCOCCOCCOCCOCCOCCOCCOCCO [sat. analog of A12-16]
Cubic phase region ([4]; in deionized water): 28-50 % Actives Level
Hexagonal phase region ([4]; in deionized water): 50-73 % Actives Level
Paste phase region ([4]; in deionized water): 93-100 % Actives Level

CCCCCCCCCCOCCOCCOCCOCCOCCO [sat. analog of A10-10]
Lamellar phase region ([4]; in deionized water): 55-80 % Actives Level

CCCCCCCCCCCCOCCOCCOCCOCCOCCOCCOCCO [sat. analog of A12-13]
Hexagonal phase region ([4]; in deionized water): 30-67 % Actives Level
Lamellar phase region ([4]; in deionized water): 67-90 % Actives Level
